Measured values as given in patent US20200061047A1, “NEW USE OF RIFAMYCIN-QUINOLIZIDONE DUAL-ACTION MOLECULE” (TenNor Therapeutics Limited, priority 2017, published 2020).
≈ marks a conversion by molar mass, not a printed value. Read-outs that look alike come from different tables or passages of the source.

Columns and labels:
Assay in all cases: MIC, agar dilution drug sensitivity test
Type in all cases: cell-based
[1] = tested on: Bacteroides bifidum ATCC 1569; conditions: ATCC1569, Table 1
[2] = tested on: Lactobacillus salivarius JMI 941623; conditions: Ligilactobacillus salivarius, JMI941623, Table 1
[3] = tested on: Morganella morganii MMX 6123; conditions: MMX6123, Table 1
[4] = tested on: Helicobacter pylori ATCC 700824; conditions: ATCC700824, Table 1
[5] = tested on: Escherichia coli ATCC 25922; conditions: ATCC25922, Table 1
[6] = tested on: Eggerthella lenta ATCC 43055; conditions: ATCC43055, Table 1
[7] = tested on: Serratia marcescens ATCC 43862; conditions: Serratia marcescens, ATCC43862, Serratia marcescens ATCC 43862, read-out: MIC
[8] = tested on: Bordetella avium ATCC 6945; conditions: Bordetella avium, ATCC6945, Bordetella avium ATCC 6945, read-out: MIC
[9] = tested on: Yersinia enterocolitica ATCC 23715; conditions: ATCC23715, Table 1
[10] = tested on: Alcaligenes faecalis JMI 940880; conditions: JMI940880, Aerobic
[11] = tested on: Actinomyces naeslundii JMI 534283; conditions: JMI534283, Aerobic
[12] = tested on: Streptococcus pneumoniae ATCC 49619; conditions: read-out: MIC
[13] = tested on: Enterobacter aerogenes ATCC 13048; conditions: Klebsiella aerogenes, ATCC13048, Enterobacter aerogenes ATCC 13048, read-out: MIC
[14] = tested on: Salmonella spp ATCC 35987; conditions: ATCC35987, Table 1
Experimental: In this embodiment, compound I-rifamycin-quinolizidone dual-action molecule is used in a drug sensitivity test on pathogenic bacteria associated with hepatic encephalopathy, the pathogenic bacteria including the above ammonia-producing bacteria. Except that Haemophilus is tested using the microscale broth dilution method, all the other bacteria are tested using the agar dilution method consistent with that in the Guideline of the Clinical and Laboratory Standards Institute (CLSI; 1-3). All the other drug susceptibility tests are performed under anaerobic conditions except that some selective isolates are tested under both aerobic and anaerobic conditions. Control compounds include metronidazole, rifampicin, clindamycin (under anaerobic conditions) and ciprofloxacin (under aerobic and anaerobic conditions).
The tested clinical isolates may be reference strains obtained from American Type Culture Collection, ATCC, Manassas, Va. After being received, the strains are respectively inoculated on appropriate agar plates and placed under optimized conditions for growth. The growing strains are cloned in the broth containing cryoprotectant to prepare bacterial suspensions, and the bacterial suspensions are subpackaged and then stored in freezing at −80° C. Before test, the frozen bacteria are inoculated into appropriate agar dishes and cultured for growth. Anaerobic bacteria grow for 48 hours at 35° C. in a Bactron II oxygen-free cabinet (Shel Lab, Cornelius, Oreg.) before test. […]
The Minimum Inhibitory Concentration (MIC) is determined using the agar dilution method.
The MIC values of all microorganisms except Haemophilus are determined using the agar dilution method in the CLSI (1-2). […] After culturing, the MIC is determined in accordance with the CLSI guideline (1-2).

[15] = tested on: Fusobacterium necrophorum ATCC 25286; conditions: ATCC25286, Table 1
[16] = tested on: Streptococcus parasanguinis MMX 5671; conditions: Streptococcus parasanguinis, MMX5671, Streptococcus parasanguinis MMX 5671, read-out: MIC
[17] = tested on: Klebsiella oxytoca JMI 933995; conditions: JMI933995, Table 1
[18] = tested on: Bifidobacterium infantis subsp. Infantis ATCC 15702; conditions: ATCC15702, Table 1
[19] = tested on: Peptostreptococcus prevotii ATCC 9321; conditions: Anaerococcus prevotii, ATCC9321, Table 1
[20] = tested on: Proteus vulgaris MMX 6454; conditions: MMX6454, Table 1
[21] = ATCC49619, Streptococcus pneumoniae ATCC 49619, Aerobic
[22] = ATCC49619, Streptococcus pneumoniae ATCC 49619, Anaerobic

SMILES | MIC [1] | MIC [2] | MIC [3] | MIC [4] | MIC [5] | MIC [6] | MIC ([7]; Aerobic) | MIC ([7]; Anaerobic) | MIC ([8]; Aerobic) | MIC ([8]; Anaerobic) | MIC [9] | MIC [10] | MIC [11] | MIC [12, 21] | MIC [12, 22] | MIC ([13]; Aerobic) | MIC ([13]; Anaerobic) | MIC [14] | MIC [15] | MIC ([16]; Aerobic) | other results
O=C(O)c1cn(C2CC2)c2cc(N3CCNCC3)c(F)cc2c1=O [Ciprofloxacin, ciprofloxacin] | 2 µg/mL (≈ 6.04 µM) | 1 µg/mL (≈ 3.02 µM) | 1 µg/mL (≈ 3.02 µM) | 0.12 µg/mL (≈ 0.362 µM) | 0.008 µg/mL (≈ 0.0241 µM) | 1 µg/mL (≈ 3.02 µM) | 0.12 µg/mL (≈ 0.362 µM) | 0.25 µg/mL (≈ 0.754 µM) | 1 µg/mL (≈ 3.02 µM) | 2 µg/mL (≈ 6.04 µM) | 0.015 µg/mL (≈ 0.0453 µM) | 1 µg/mL (≈ 3.02 µM) | 2 µg/mL (≈ 6.04 µM) | 1 µg/mL (≈ 3.02 µM) | 2 µg/mL (≈ 6.04 µM) | 0.03 µg/mL (≈ 0.0905 µM) | 2 µg/mL (≈ 6.04 µM) | 0.015 µg/mL (≈ 0.0453 µM) | 1 µg/mL (≈ 3.02 µM) | 1 µg/mL (≈ 3.02 µM) | MIC ([16]; Anaerobic): 1 µg/mL (≈ 3.02 µM); MIC [17]: 0.015 µg/mL (≈ 0.0453 µM); MIC [18]: 2 µg/mL (≈ 6.04 µM); MIC [19]: 1 µg/mL (≈ 3.02 µM); MIC [20]: 0.12 µg/mL (≈ 0.362 µM)
CO[C@H]1/C=C/O[C@@]2(C)Oc3c(C)c(O)c4c(O)c(c(/C=N/N5CCC(N(C)C6([C@@H]7CCN(c8c(F)cn9c(=O)c(C(=O)O)cc(C%10CC%10)c9c8C)C7)CC6)CC5)c(O)c4c3C2=O)NC(=O)/C(C)=C\C=C\[C@H](C)[C@H](O)[C@@H](C)[C@@H](O)[C@@H](C)[C@H](OC(C)=O)[C@@H]1C [Compound I, (R)-3-[(4-{1-[1-(3-carboxy-1-cyclopropyl-7-fluoro-9-methyl-4-oxo-4H-quinolizine-8-yl)-pyrrolidin-3-yl-cyclopropyl]-methylamino}-piperidin-1-ylimino)-methylene]-rifamycin SV] | 16 µg/mL (≈ 13.3 µM) | 0.5 µg/mL (≈ 0.415 µM) | 16 µg/mL (≈ 13.3 µM) | 0.12 µg/mL (≈ 0.0996 µM) | 0.12 µg/mL (≈ 0.0996 µM) | 0.06 µg/mL (≈ 0.0498 µM) | 4 µg/mL (≈ 3.32 µM) | > 64 µg/mL | 4 µg/mL (≈ 3.32 µM) | > 64 µg/mL | 0.12 µg/mL (≈ 0.0996 µM) | 32 µg/mL (≈ 26.5 µM) | 0.03 µg/mL (≈ 0.0249 µM) | 0.06 µg/mL (≈ 0.0498 µM) | 0.06 µg/mL (≈ 0.0498 µM) | 1 µg/mL (≈ 0.83 µM) | > 64 µg/mL | 0.06 µg/mL (≈ 0.0498 µM) | 0.12 µg/mL (≈ 0.0996 µM) | 0.25 µg/mL (≈ 0.207 µM) | MIC ([16]; Anaerobic): 8 µg/mL (≈ 6.64 µM); MIC [17]: 4 µg/mL (≈ 3.32 µM); MIC [18]: 2 µg/mL (≈ 1.66 µM); MIC [19]: 0.03 µg/mL (≈ 0.0249 µM); MIC [20]: 2 µg/mL (≈ 1.66 µM)
